Where two headings read alike, the source gives them in different places.

The target of one series is human BACE1 (Homo sapiens (Human), UniProt P56817). Description: BACE1 binding assay (SPA-based radioligand binding). The following applies: pH 4.5, Ki calculated from IC50. The method, then: The binding assay was performed as SPA-based assay using a biotinylated form of human BACE1 recombinantly expressed and subsequently purified from Freestyle HEK293 cells. The binding assay was run in a 50 mM sodium acetate buffer, pH 4.5 containing 50 mM NaCl and 0.03% Tween-20 in white clear bottom 384 plates (Corning #3653). 10 nM (final concentration) radioligand ([^3H]—N-((1S,2R)-1-benzyl-3-cyclopropylamino-2-hydroxy-propyl)-5-(methanesulfonyl-methyl-amino)-N—((R)-1-phenyl-ethyl)-isophthalamide) (TRQ11569 purchased from GE Healthcare) was mixed with test compound at a given concentration, 6 nM (final concentration) human BACE1 and 25 μg Streptavidin coated PVT core SPA beads (RPNQ0007, GE Healthcare Life Sciences) in a total volume of 40 μl. Several concentrations of each test compound were tested in the assay for IC50 determination. The plates were incubated for one hour at room temperature and counted in a Wallac Trilux counter. Total and non-specific binding were determined using buffer and 1 μM (final concentration) of the high affinity BACE1 reference inhibitor (S)-6-[3-chloro-5-(5-prop-1-ynyl-pyridin-3-yl)-thiophen-2-yl]-2-imino-3,6-dimethyl-tetrahydro-pyrimidin-4-one, respectively. For each test compound, a IC50 value (the concentration mediating 50% inhibition of the specific binding of the radioligand) was determined from concentration-response curve and used to calculate the Ki from the equation Ki=IC50/(1+L/Kd), where L and Kd are the final concentration of the radioligand used in the assay and the dissociation constant of the radioligand, respectively. The Kd of the radioligand was determined from saturation binding experiments.
Chain of human BACE1 (P56817 46-501): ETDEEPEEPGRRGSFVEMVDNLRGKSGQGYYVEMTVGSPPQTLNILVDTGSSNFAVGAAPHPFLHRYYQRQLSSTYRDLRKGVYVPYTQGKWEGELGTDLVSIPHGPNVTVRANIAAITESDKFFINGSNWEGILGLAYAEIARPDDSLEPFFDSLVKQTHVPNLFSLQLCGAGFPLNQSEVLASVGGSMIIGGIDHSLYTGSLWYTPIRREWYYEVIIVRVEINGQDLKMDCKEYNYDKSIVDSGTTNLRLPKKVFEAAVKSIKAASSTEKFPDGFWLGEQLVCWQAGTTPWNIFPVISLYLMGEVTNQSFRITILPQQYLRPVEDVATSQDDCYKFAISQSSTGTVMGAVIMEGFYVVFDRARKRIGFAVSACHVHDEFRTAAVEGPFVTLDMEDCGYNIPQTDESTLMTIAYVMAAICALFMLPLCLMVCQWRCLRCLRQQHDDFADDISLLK

A short description of series [1]: Bioanalysis of brain and plasma samples (exposure, UPLC-MS/MS). Format: in vivo. The following applies: male, Sprague Dawley, po, rat, 3 hours post dose; for Kp at 3 h: brain/plasma, read-out: Brain/Plasma ratio; for concentration at 3 h: read-out: Exp. As to the method: Young adult Male Sprague Dawley rats of approximately 250 g weight were purchased from Charles River and received 0-30 mg/kg of vehicle (10% HP betaCD+1M MeSO4, pH 2.5) or test compounds (dissolved in vehicle) only by oral gavage (p.o). The compounds are dosed at a volume of 5 ml/kg. Cohorts of 5-10 animals were established for each treatment condition.
At T=180 minutes after initial dosing the animals were stunned and decapitated with a guillotine. Trunk-blood was sampled in EDTA coated tubes after decapitation of the animal. The blood was centrifuged at 2200 G at 4° C. for 15 minutes and the plasma was collected and frozen at −80° C. The blood was aliquoted for Aβ ELISA and DMPK analysis Immediately following sacrifice, the brain was extracted and split into 2 halves. The right hemibrains were snap frozen on dry ice and stored at −80° C. The left half was dissected; with the front forebrain taken for Aβ ELISA and the remainder used for DMPK analysis. These samples were also snap frozen on dry ice and stored at −80° C. until use for analysis.
TC was determined in plasma and brain homogenate using UltraPerformance LC® (UPLC®) chromatography followed by tandem-MS (MS/MS) detection.
Brain homogenate was prepared by homogenizing the brain 1:4 (v/v) with water:2-propanol:DMSO (50:30:20 v/v/v) followed by centrifugation and collection of the supernatant. Calibration standards and QC samples were prepared using a Hamilton robot. 150 μL of ISTD in acetonitrile (1 ng/mL ISTD) was added to 25 μL of calibration standards, QC samples and test samples (plasma and brain homogenate) using a Biomek robot. After centrifugation (6200 g, 4° C., 20 min) 100 μL supernatant from each sample was transferred to a new plate and mixed with 100 μL water with 0.1% formic acid using a Biomek robot (method file InVivo transfer). After a quick centrifugation (6200 g, 4° C., 5 min) the samples were placed in the auto-sampler.
MS/MS detection was done with an Applied Biosystems Sciex API 4000 instrument in positive-ion electrospray ionisation mode. TC and ISTD were detected at a parent>daughter mass to charge ratio (m/z). Nitrogen was used for the nebulizer and collision gases. The peak area correlated linearly with the plasma and brain concentration of the analytes in the range of 1.00-1000 ng/mL plasma and 5.00-5000 ng/g brain (corrected for dilution). If the plasma/brain sample drug concentration was above 1000 ng/mL or 5000 ng/g, the sample was diluted appropriately in blank plasma/blank brain homogenate before analysis. […]

In a further series the test system is P-gp (MDR1). The series can be described thus: MDCK-MDR1 assay (permeability/efflux). Format: in vitro ADME. The following applies: dog, Papp BA/Papp AB, 60-minute incubation, Pgp substrate when ≧2. As to the method: The permeability of the test compounds was assessed in MDCK-MDR1 cells that were cultured to confluency (4-6 days) in a 96 transwell plate. Test compounds were diluted with the transport buffer (HBSS+1% BSA) to a concentration of 0.5 μM and applied to the apical or basolateral side of the cell monolayer. Permeation of the test compounds from A to B direction or B to A direction was determined in triplicate over a 60-minute incubation time at 37° C. and 5% CO2 with a relative humidity of 95%. Test compounds were quantified by LC-MS/MS analysis based on the peaks area ratios of analyte/IS in both the receiver and donor wells of the transwell plate.
The apparent permeability coefficient Papp (cm/s) was calculated using the equation: Papp=(dCr/dt)×Vr/(A×C0)
Where dCr/dt is the cumulative concentration of compound in the receiver chamber as a function of time (μM/s); Vr is the solution volume in the receiver chamber (0.05 mL on the apical side; 0.25 mL on the basolateral side); A is the surface area for the transport, i.e. 0.0804 cm^2 for the area of the monolayer; CO is the initial concentration in the donor chamber (μM).
Compounds are classified Pgp substrates when efflux ratio (Papp BA/Papp AB) is ≧2.

Regarding `COc1cnc(C(=O)Nc2ccc(F)c([C@@]3(C(F)F)N=C(N)CCC3(F)F)c2)cn1` [Compound 3, (S)—N-(3-(6-amino-2-(difluoromethyl)-3,3-difluoro-2,3,4,5-tetrahydropyridin-2-yl)-4-fluorophenyl)-5-methoxypyrazine-2-carboxamide], on human BACE1, the Ki – broadly, a dissociation constant, usually derived from enzyme kinetics or from competition with a known ligand – is 8.5 nM. For the same compound, the results for the Kp at 3 h in series [1] (10 mg/kg p.o.) and in series [1] (30 mg/kg p.o.) were 0.3 and 0.32, respectively. The concentration at 3 h in series [1] (brain, 10 mg/kg p.o.) stood at 511 ng/g; in series [1] (brain, 30 mg/kg p.o.) it was 2280 ng/g; in series [1] (plasma, 10 mg/kg p.o.), 1680 ng/g; in series [1] (plasma, 30 mg/kg p.o.) it was 7060 ng/g. For the same compound, the efflux ratio (as a rule, a quotient of directional permeabilities that is used to spot active efflux) at 60 min, 0.5 μM with P-gp (MDR1) is 1.22.

As for `COc1ccc(C(=O)Nc2ccc(F)c([C@@]3(C(F)F)N=C(N)CCC3(F)F)c2)nc1` [Compound 5, (S)—N-(3-(6-amino-2-(difluoromethyl)-3,3-difluoro-2,3,4,5-tetrahydropyridin-2-yl)-4-fluorophenyl)-5-methoxypicolinamide], the Ki on human BACE1 was 6.7 nM. In addition, the Kp at 3 h in series [1] (10 mg/kg p.o.) turned out to be 0.28; in series [1] (30 mg/kg p.o.), 0.29. The concentration at 3 h in series [1] (brain, 10 mg/kg p.o.) was found to be 187 ng/g; in series [1] (brain, 30 mg/kg p.o.), 959 ng/g; in series [1] (plasma, 10 mg/kg p.o.) it was 660 ng/g; in series [1] (plasma, 30 mg/kg p.o.), 3350 ng/g. Also, the efflux ratio at 60 min, 0.5 μM in the series on P-gp (MDR1) came to 0.99.

These data come from patent US9346797B1, “2-amino 6-(difluoromethyl)-5,5-difluoro-6-phenyl-3,4,5,6-tetrahydropyridines as BACE1 inhibitors” (H. Lundbeck A/S, priority 2014, dated 2016).
